Laboratory results published in patent publication US5807832A, “Oral delivery of biologically active substances bound to vitamin B12” (Biotech Australia Pty Limited, priority 1988, dated 1998).

Columns and labels:
Assay type in all cases: in vivo
C57B1/6J mice [1] = test: Serum antibody response (ELISA titre) after oral feeding of antigen; details: two feedings of antigen (50 μg) on days 1 and 14, reciprocal of antiserum dilution giving ELISA reading 0.5, day 21, mean of 15 mice ±1 SD
Experimental: Female C57B1/6J mice (18-22 g) were obtained from the Animal Resources Centre (Perth, Western Australia). All mice received conjugate preparations in 0.5 ml of 0.1M carbonate/bicarbonate buffer pH9.5 using a specially prepared feeding needle. Mice were fed on days 0 and 14. On day 21 the mice were bled from the orbital plexus. Antibody titres of serum were determined by ELISA using alkaline phosphatase conjugated anti-mouse serum.
The possible potential for VB12 deliver protein molecules, covalently linked to it, from the intestine to the circulation was investigated. The immune response generated to this complex was compared to that generated by the protein fed alone or together with VB12, or to the protein injected intramuscularly.
* The reciprocal of the antiserum dilution that gave an ELISA reading of
0.5 afer 45min. at 37° C. on day 21 after initial feeding. Each
value represents the mean of 15 mice ±1 standard deviation. Mice
received two feedings of antigen (50 μg) on days 1 and 14. On day 21
mice were bled from the retro orbital plaxus and the antibody titres
measured by ELISA as described previously (RussellJones et al., 1984).
Each protein molecule was substituted with an average of 5 VB12 groups.

C57B1/6J mice [2] = test: Footpad assay for DTH (footpad swelling); details: oral 50 μg priming dose, challenge with 10 μg immunizing antigen in right foot, swelling after 24 h
Experimental: Feeding of these VB12-protein complexed was also capable of stimulating good cellular immunity (as measured by the footpad assay for DTH).
+ Footpad swelling was measured in mm using a microcaliper. All groups
received a 50 μg priming dose of antigen followed by challenge with 10
μg of the immunizing antigen in the right foot and 10 μg of
ovalbumen in the left footpad. Swelling was measured after 24 h.

S. typhimurium = test: Systemic S. typhimurium infection in mice: survival and clearance; details: for Suvivors (day 10) Number / Suvivors (day 10) Percentage: total dose 1 mg as five doses 12 h apart from day 3, mice fed 1×10^6 S. typhimurium on day 0; for Elimination of systemic S. typhimurium infection / prevention of death (in words): 1 mg total dose
[3] = system: Mature C57B1/6J female mice; test: Stimulation of ovulation in PMSG-primed mice (corpora haemorrhagica on the ovaries)
Experimental: Mature C57B1/6J female mice were treated in the following fashion: On day 0 all mice received a subcutaneous (s.'c) superovulating dose of pregnant mare serum gonadotraphin (PMSG) to stimulate the growth of ovarian follicles. After 48 hours mice received various doses of LHRH, Lys-6-LHRH or saline. On day 3 mice were sacrificed and examined for ovulation. Ovulation was assessed by examining for the presence of corpora haemorrhagica on the ovaries using a stereoscopic microscope at […].

Substance | Serum Antibody Response (C57B1/6J mice [1]) | Footpad Response (footpad swelling) (C57B1/6J mice [2]) | Suvivors (day 10) Number (S. typhimurium; oral) | Suvivors (day 10) Percentage (S. typhimurium; oral) | Number of mice ovulating ([3]; Table 2, PMSG 4 IU day 0, 50 μg iv day 2) | Number of mice ovulating ([3]; Table 2, PMSG 8 IU day 0, 50 μg iv day 2) | Number of mice ovulating ([3]; Table 3, PMSG 8 IU day 0, 50 μg/os day 2) | Number of mice ovulating ([3]; Table 4, PMSG 8 IU day 0, 6 μg/os day 2) | Number of mice ovulating ([3]; Table 4, PMSG 8 IU day 0, 12 μg/os day 2) | Number of mice ovulating ([3]; Table 4, PMSG 8 IU day 0, 25 μg/os day 2) | Number of mice ovulating ([3]; Table 4, PMSG 8 IU day 0, 50 μg/os day 2) | Elimination of systemic S. typhimurium infection / prevention of death (in words) (S. typhimurium; i.m. injection) | Suvivors (day 10) Number (S. typhimurium; i.m.) | Suvivors (day 10) Percentage (S. typhimurium; i.m.) | Elimination of systemic S. typhimurium infection / prevention of death (in words) (S. typhimurium; oral)
vitamin B12 [VB12] | < 4 | 0 mm | 0 | 0% |  |  |  |  |  |  |  |  |  |  | 
lutenizing hormone releasing hormone [LHRH] |  |  |  |  | 1/3 | 1/4 | 1/5 | 0/5 | 0/5 | 1/5 | 1/5 |  |  |  | 
neomycin |  |  | 0 | 0% |  |  |  |  |  |  |  | could be saved | 2 | 100% | not able to eliminate systemic infection
